Consider 3 molecules from article PMC7516806, “Hybrid Antimicrobial Peptide Targeting Staphylococcus aureus and Displaying Anti-infective Activity in a Murine Model” (Frontiers in Microbiology, 2020).

Data set [1] has as its system S. aureus 25923. Briefly: MIC, modified microtiter dilution. Format: cell-based, Staphylococcus aureus. The conditions noted are these: MHB, 2–7 × 10^5 CFU/ml, 37°C, 24 h, no turbidity, at least three independent repeats. From the text:
(§1) The experiment was repeated at least three times independently.

Data set [2] deals with S. aureus 29213. Briefly: MIC, modified microtiter dilution. The conditions noted are these: MHB, 2–7 × 10^5 CFU/ml, 37°C, 24 h, no turbidity, at least three independent repeats. The data set is classed as cell-based, Staphylococcus aureus.
Description: as §1

For data set [3], the system named is S. typhimurium 14028. Briefly: MIC, modified microtiter dilution. The data set is classed as cell-based, Salmonella typhimurium. The conditions noted are these: MHB, 2–7 × 10^5 CFU/ml, 37°C, 24 h, no turbidity, at least three independent repeats.
Description: as §1

Data set [4] deals with S. typhimurium 7731. Briefly: MIC, modified microtiter dilution. Format: cell-based, Salmonella typhimurium. The conditions noted are these: MHB, 2–7 × 10^5 CFU/ml, 37°C, 24 h, no turbidity, at least three independent repeats.
Description: as §1

Data set [5] relates to L. rhamnosus 7469. Briefly: MIC, modified microtiter dilution. To be noted: 2–7 × 10^5 CFU/ml, 37°C, 24 h, no turbidity, at least three independent repeats. The data set is classed as cell-based, Lactobacillus rhamnosus.
Description: as §1

Data set [6] concerns L. rhamnosus 1.0911. Briefly: MIC, modified microtiter dilution. To be noted: 2–7 × 10^5 CFU/ml, 37°C, 24 h, no turbidity, at least three independent repeats. The data set is classed as cell-based, Lactobacillus rhamnosus.
Description: as §1

The subject of data set [7] is L. rhamnosus 1.0936. Briefly: MIC, modified microtiter dilution. The data set is classed as cell-based, Lactobacillus rhamnosus. To be noted: 2–7 × 10^5 CFU/ml, 37°C, 24 h, no turbidity, at least three independent repeats.
Description: as §1

In data set [8] the test system is L. rhamnosus 1.0385. Briefly: MIC, modified microtiter dilution. The data set is classed as cell-based, Lactobacillus rhamnosus. To be noted: 2–7 × 10^5 CFU/ml, 37°C, 24 h, no turbidity, at least three independent repeats.
Description: as §1

Data set [9] relates to L. plantarum 8014. Briefly: MIC, modified microtiter dilution. The data set is classed as cell-based, Lactobacillus plantarum. To be noted: 2–7 × 10^5 CFU/ml, 37°C, 24 h, no turbidity, at least three independent repeats.
Description: as §1

The subject of data set [10] is E. coli K99. To be noted: MHB, 2–7 × 10^5 CFU/ml, 37°C, 24 h, no turbidity, at least three independent repeats. An excerpt: (§2) The bacterial strains Escherichia coli (E. coli) ATCC 25922, E. coli K88, E. coli K99, Pseudomonas aeruginosa (P. aeruginosa) ATCC 27853, Escherichia coli (E. coli) UB1005, Salmonella typhimurium 14028, Salmonella pullorum (S. pullorum) C7913, S. typhimurium C7731, S. aureus ATCC 29213, MRSA ATCC 43300, and S. aureus ATCC 25923 were obtained from the College of Veterinary Medicine, Northeast Agricultural University, China. Lactobacillus plantarum (L. plantarum) 8014, Lactobacillus rhamnosus (L. rhamnosus) 7469, L. rhamnosus 1.0911, L. rhamnosus 1.0936, and L. rhamnosus 1.0385 were obtained from the Key Laboratory of Food College, Northeast Agricultural University, China.
(§3) As in a previous study, the antimicrobial activities of the AMPs were investigated using a modified standard microtiter dilution method ([Dong et al., 2014]). The peptides were serially diluted with a solution containing 0.01% acetic acid and 0.2% bovine serum albumin (BSA, Sigma) in 96-well plates. The bacteria grew to the mid-log phase and then were dissolved in MHB at concentration of 2–7 × 10^5 CFU/ml. The peptides and bacterial solution were mixed in equal volume in a 37°C incubator for 24 h. […] Mueller-Hinton broth with microorganisms was used as the positive control, and the pure broth was used as the negative control. The experiment was repeated at least three times independently.

For data set [11], the system named is E. coli K88. The conditions noted are these: MHB, 2–7 × 10^5 CFU/ml, 37°C, 24 h, no turbidity, at least three independent repeats.
Description: as §2, §3

The test system of data set [12] is P. aeruginosa 27853. Briefly: MIC, modified microtiter dilution. The data set is classed as cell-based, Pseudomonas aeruginosa. The conditions noted are these: MHB, 2–7 × 10^5 CFU/ml, 37°C, 24 h, no turbidity, at least three independent repeats.
Description: as §1

Data set [13] deals with MRSA 43300. The data set is classed as cell-based, Staphylococcus aureus. To be noted: MHB, 2–7 × 10^5 CFU/ml, 37°C, 24 h, no turbidity, at least three independent repeats.
Description: as §1

For data set [14], the system named is RAW 264.7 cells. Briefly: Cytotoxicity, MTT dye reduction assay. Format: cell-based, murine. The conditions noted are these: highest concentration of 128 μM, 4 h, three independent repeats. As for the experimental part:
The cytotoxicity of peptides was determined by healthy human erythrocytes and the murine macrophage cell line RAW 264.7 via a hemolysis assay and MTT dye reduction assay, respectively ([Wang et al., 2018]). In the hemolysis assay, fresh hRBCs from healthy people were centrifuged for 5 min at 1,000 × g and then washed three times with PBS (pH = 7.2). The 100 μL erythrocyte suspension and peptides were incubated for 1.5 h in an incubator at 37°C. The 96-well plates were centrifuged at 1,000 × g for 5 min, and the supernatants were carefully aspirated. The absorbance at 570 nm indicated the leakage of hemoglobin. The hRBCs in the PBS sample was used as the negative control, and 0.1% Triton X-100 addition served as the positive control. In the MTT dye reduction assay, 1.0–2.0 × 10^5 cells were plated in 96-well plates and then treated with various concentrations of peptides for 4 h at 37°C in a 5% CO2 incubator. Subsequently, 50 μL of MTT was added to the plated cells at a final concentration of 0.5 mg/mL and incubated for 4 h. Then, the cells were centrifuged at 1000 × g for 5 min, and the supernatants were discarded. Formazan crystals were dissolved in 150 μL of DMSO, and the OD570 nm was measured using a microplate reader (TECAN GENios F129004; TECAN, Austria). The experiment was repeated three times independently.

For data set [15], the system named is S. aureus 29213. Briefly: MIC in the presence of physiological salts. The data set is classed as cell-based, Staphylococcus aureus. To be noted: three independent repeats; for MIC against S. aureus 29213, FeCl3: 4 μM FeCl3; for MIC against S. aureus 29213, FeCl3 / MIC against S. aureus 29213, NH4Cl / MIC against S. aureus 29213, ZnCl2 / MIC against S. aureus 29213, MgCl2 / MIC against S. aureus 29213, CaCl2 / MIC against S. aureus 29213, KCl / MIC against S. aureus 29213, NaCl: unit not given in Table 4; for MIC against S. aureus 29213, NH4Cl: 6 μM NH4Cl; for MIC against S. aureus 29213, ZnCl2: 8 μM ZnCl2; for MIC against S. aureus 29213, MgCl2: 1 mM MgCl2; for MIC against S. aureus 29213, CaCl2: 2 mM CaCl2; for MIC against S. aureus 29213, KCl: 4.5 mM KCl; for MIC against S. aureus 29213, NaCl: 150 mM NaCl. As to the method:
as §1
The MIC of peptides was determined in the presence of salts at physiological concentrations (150 mM NaCl, 4.5 mM KCl, 6 μM NH4Cl, 8 μM ZnCl2, 1 mM MgCl2, 2 mM CaCl2, and 4 μM FeCl3) as described previously ([Dong et al., 2014]). All experiments were performed three times independently.

Data set [16] has as its system E. coli UB1005. Briefly: MIC, modified microtiter dilution. The data set is classed as cell-based, Escherichia coli. To be noted: MHB, 2–7 × 10^5 CFU/ml, 37°C, 24 h, no turbidity, at least three independent repeats.
Description: as §1

The subject of data set [17] is E. coli 25922. Briefly: MIC, modified microtiter dilution. The data set is classed as cell-based, Escherichia coli. The conditions noted are these: MHB, 2–7 × 10^5 CFU/ml, 37°C, 24 h, lowest concentration with no turbidity, at least three independent repeats.
Description: as §1

In data set [18] the test system is S. pullorum 7913. Briefly: MIC, modified microtiter dilution. Format: cell-based, Salmonella pullorum. The conditions noted are these: MHB, 2–7 × 10^5 CFU/ml, 37°C, 24 h, no turbidity, at least three independent repeats.
Description: as §1

In data set [19] the test system is panel of bacterial species. Briefly: MIC against a panel of bacterial species (summary statements). The conditions noted are these: all tested bacteria, up to the highest concentration measured. The data set is classed as cell-based.
Description: as §1

Positions of bridges follow the written chain, without caps; N, C: chain ends. Residues, ends and D or L forms follow the SMILES beside them. No end group written: not given here. Some results are limits rather than exact numbers.

Consider RWWWRR-NH2 [Peptide S6], for which, in data set [1], the “MIC S. aureus 25923” value was determined as 16 µM. Moreover, the “MIC S. aureus 29213” value in data set [2] amounted to 16 µM. The “MIC S. typhimurium 14028” value in data set [3] is more than 64 µM. Besides, the “MIC S. typhimurium 7731” value in [4] is more than 64 µM. Further, the “MIC L. rhamnosus 7469” value in data set [5] is more than 64 µM. Further, in [6], the “MIC L. rhamnosus 1.0911” value was more than 64 µM. In addition, the “MIC L. rhamnosus 1.0936” value in [7] was more than 64 µM. Further, the “MIC L. rhamnosus 1.0385” value in [8] is more than 64 µM. In [9], the “MIC L. plantarum 8014” value was more than 64 µM. For the same molecule, the “MIC E. coli K99” value in data set [10] stood at 32 µM. The “MIC E. coli K88” value in data set [11] stood at 32 µM. For the same molecule, the “MIC P. aeruginosa 27853” value in data set [12] was more than 64 µM. The “MIC MRSA 43300” value in data set [13] came to 8 µM. For the same molecule, in [14], the “RAW 264.7 cell survival rate” value worked out at 94%. Moreover, in [15], the “MIC against S. aureus 29213, FeCl3” value was 32 µM; the “MIC against S. aureus 29213, NH4Cl” value was found to be 16 µM; the “MIC against S. aureus 29213, ZnCl2” value was 4 µM; the “MIC against S. aureus 29213, MgCl2” value was 32 µM. Also, in [15], the “MIC against S. aureus 29213, CaCl2” value came out at 32 µM; the “MIC against S. aureus 29213, KCl” value is 16 µM; the “MIC against S. aureus 29213, NaCl” value worked out at 8 µM. The “MIC E. coli UB1005” value in data set [16] was found to be 32 µM. The “MIC E. coli 25922” value in data set [17] turned out to be 32 µM. Further, the “MIC S. pullorum 7913” value in data set [18] was more than 64 µM.

Consider `C[C@@H]1NC(=O)[C@@H](N)CSSC[C@@H](C(N)=O)NC(=O)[C@H](Cc2ccccc2)NC(=O)[C@H](Cc2ccc(O)cc2)NC(=O)[C@H](CO)NC1=O` [Peptide S5] (H-CASYFC-NH2; disulfide 1-6; N-terminus and C-terminus assumed), for which the “antimicrobial activity against the tested microorganisms” value in data set [19] is on record as “failed to show antimicrobial activity”. The “MIC against S. aureus 29213 (column MIC, no added salt)” value in [15] (control without added salt, unit not printed in Table 4, μM as in Table 3) was more than 64 µM.

Consider RWWWAA-NH2 [Peptide S8], for which the “MIC S. aureus 25923” value in data set [1] was more than 64 µM. Besides, the “MIC S. aureus 29213” value in data set [2] is more than 64 µM. In data set [3], the “MIC S. typhimurium 14028” value is more than 64 µM. For the same molecule, the “MIC S. typhimurium 7731” value in data set [4] is more than 64 µM. Also, the “MIC L. rhamnosus 7469” value in [5] was more than 64 µM. In [6], the “MIC L. rhamnosus 1.0911” value was more than 64 µM. Further, the “MIC L. rhamnosus 1.0936” value in data set [7] was more than 64 µM. In data set [8], the “MIC L. rhamnosus 1.0385” value was more than 64 µM. For the same molecule, in data set [9], the “MIC L. plantarum 8014” value is more than 64 µM. Moreover, the “MIC E. coli K99” value in [10] was more than 64 µM. In [11], the “MIC E. coli K88” value is more than 64 µM. Besides, in data set [12], the “MIC P. aeruginosa 27853” value was more than 64 µM. Moreover, the “MIC MRSA 43300” value in data set [13] was more than 64 µM. The “RAW 264.7 cell survival rate” value in data set [14] is recorded as 85%. Also, in [15], the “MIC against S. aureus 29213, FeCl3” value was more than 64 µM; the “MIC against S. aureus 29213, NH4Cl” value is more than 64 µM; the “MIC against S. aureus 29213, ZnCl2” value came to 64 µM; the “MIC against S. aureus 29213, MgCl2” value is more than 64 µM. Moreover, in [15], the “MIC against S. aureus 29213, CaCl2” value is more than 64 µM; the “MIC against S. aureus 29213, KCl” value is more than 64 µM; the “MIC against S. aureus 29213, NaCl” value was more than 64 µM. The “MIC E. coli UB1005” value in [16] was more than 64 µM. Further, in data set [17], the “MIC E. coli 25922” value was more than 64 µM. For the same molecule, the “MIC S. pullorum 7913” value in [18] is more than 64 µM.
